Measured values from patent US20130295672A1, “STEM CELL CULTURE MEDIA AND METHODS” (CONSEJO SUPERIOR DE INVESTIGACIONES CIENTÍFICAS, priority 2010, published 2013).

Tests used:
Type in all cases: cell-based, human
[1] = MTS assay (CellTiter AQueous One Solution Cell Proliferation Assay), hASC viability/growth; conditions: human, hASC cells; no APRIL/BAFF; control 100%; read-out: basal hASC growth in MTS assay with inhibitor added to medium
Procedure: (§1) FIG. 2. APRIL and BAFF enhance hASC viability and proliferation. (A): Cell viability was assessed by the CellTiter AQueous One Solution Cell Proliferation Assay (Promega, Madison, Wis.) according to manufacturer's protocols. hASC (3.5×10^3 cells/well) were cultured for 6 days in 96-well plates with 100 ng/ml APRIL or BAFF. Absorbance (OD 490 nm) was measured in an ELISA plate reader (n=at least three experiments). Values were normalized to the absorbance of cells cultured without stimuli (100%). (B): Histograms show cell proliferation measured by a […] BrdU incorporation assay. hASC were cultured in p60 plates with 100 ng/ml APRIL or BAFF; BrdU (20 μM) was added for the last three days. At day 6, BrdU incorporation was detected by flow cytometry using an anti-BrdU antibody. Numerals indicate percentage of cells positive for BrdU and, therefore, actively proliferating. Cell viability was assessed by the CellTiter AQueous One Solution Cell Proliferation Assay (Promega, Madison, Wis.) according to manufacturer's protocols. hASC (3.5×10^3 cells/well) were cultured for 6 days in 96-well plates with 100 ng/ml APRIL or BAFF. Absorbance (OD 490 nm) was measured in an ELISA plate reader (n=at least three experiments). Values were normalized to the absorbance of cells cultured without stimuli (100%). Additionally, cell proliferation was measured by a colorimetric BrdU incorporation assay. hASC were cultured in p60 plates with 100 ng/ml APRIL or BAFF; BrdU (20 μM) was added for the last three days. At day 6, BrdU incorporation was detected by flow cytometry using an anti-BrdU antibody. Three independent MTS and BrdU assays were performed and triplicates included for each condition.

[2] = test system: APRIL and BAFF secretion in hASC; test: ELISA of APRIL and BAFF concentrations in hASC medium
Procedure: FIG. 4. Modulation of APRIL and BAFF in hASC. Immunosuppressive effect (A): hASC cells were cultured with 100 ng/ml APRIL (light grey bar), BAFF (dark grey bar) or no stimulus (white bar) and then stimulated with 1 μg/ml LPS or poly I:C. […] Data were acquired using a FACScalibur cytometer and analyzed using FCAP array software (BD Bioscience). (B): Immunosupression assay: Allogeneic hASCs were cultured with activated CFSE labelled PBLs at a ratio of 1:25 (hASC: PBLs) in the presence or absence of BAFF or APRIL (100 ng/ml). After 5 days cells were harvested, analyzed by flow cytometry in a FACScalibur cytometer (BD Bioscience) and acquired for CFSE. Percentage of proliferating cells (relative to PBLs alone) in the last two generations is shown. Mean and standard deviation of experiments with 6 different buffy coats are represented. Buffy coats were provided by the National Transfusion Centre of the Comunidad Autónoma of Madrid. PBLs were isolated by density centrifugation gradient using Ficollplaque Plus (GE Healthcare Biosciences AB, Uppsala) (C): hASC cells were cultured with IFNγ. Supernatants were collected five days later. […] IL-6 and IL-8 concentration in the medium after 48 h, was measured by the Cytometric Bead Array (CBA) immunoassay (BD Bioscience) following manufacturer instructions. Data were acquired using a FACScalibur cytometer and analyzed using FCAP array software (BD Bioscience). […] Supernatants were collected five days later. APRIL and BAFF concentrations in the medium were determined by ELISA (R&D Systems for BAFF, Bender MedSystem for APRIL).

hASC [3] = test: MTS assay (CellTiter AQueous One Solution Cell Proliferation Assay), hASC viability/growth; conditions: for hASC growth in MTS assay, considering basal growth 100%: 100 ng/ml, 6 days in culture, normalized to cells without stimuli (100%); for promotion of cell growth when ERK was inhibited: with ERK inhibitor U0126, effect kept when PI3K was inhibited
Procedure: as §1

Akt = test: Western blot phosphorylation kinetics in stimulated hASC: Akt; conditions: 100 ng/ml, 10-120 min
Procedure: (§2) FIG. 3. APRIL and BAFF-mediated signaling in hASC. hASC were stimulated with 100 ng/ml APRIL or BAFF (10, 30, 60, 120 min, 37° C.), placed on ice, washed with ice-cold PBS, and lysed with cell lysis buffer (Roche, Indianapolis, Ind.). Extracts were quantified by absorbance, resolved in SDS-PAGE and analyzed by immunoblot. Antibodies used were anti-phospho-Akt (Ser473), -Akt, -phospho-ERK1/2 (Thr202/Tyr204), and -ERK1/2) (BD Bioscience); secondary antibodies were horseradish peroxidase-conjugated bovine anti-rabbit and goat anti-mouse IgG. (B): Histograms show cell proliferation measured by BrdU incorporation as in (FIG. 2B), with addition of the ERK inhibitor U0126 (2.5 μM; Sigma) or the PI3K inhibitor LY294002 (10 μM; Calbiochem) to the culture on days 0 and 3. […]
(§3) hASC were stimulated with 100 ng/ml APRIL or BAFF (10, 30, 60, 120 min, 37° C.), placed on ice, washed with ice-cold PBS, and lysed with cell lysis buffer (Roche, Indianapolis, Ind.). Extracts were quantified by absorbance, resolved in SDS-PAGE and analyzed by immunoblot. […]
(§4) Plated hASC (1.5×10^4 cells/cm2) were stimulated with APRIL or BAFF (100 ng/ml) and lysed with lysis buffer (Roche) with protease and phosphatase inhibitors. Proteins in extracts were quantified by absorbance with the BCA protein assay kit (Pierce), and equal amounts of protein homogenate resolved in SDS-PAGE, and transferred to PVDF membranes (Millipore). […]

[4] = test system: HLA-I, HLA-II, CD80 and CD86 expression; test: Flow cytometry of hASC activation molecules; conditions: APRIL or BAFF activation
Procedure: hASCs were harvested, stained with appropriate fluorochrome-coupled antibodies and measured by flow cytometry (BD FACS Calibur). Data were analyzed using the FlowJo program (TreeStar, Ashland, Oreg.).

hASC [5] = test: BrdU incorporation assay by flow cytometry, hASC proliferation; conditions: 100 ng/ml, day 6, BrdU for the last three days; control 13%
Procedure: as §1, with “Additionally, cell proliferation was measured by a colorimetric BrdU incorporation assay. hASC were cultured in p60 plates with 100 ng/ml APRIL or BAFF; BrdU (20 μM) was added for the last three days.” left out, “Three independent MTS and BrdU assays were performed and triplicates included for each condition.” left out

ERK1/2 = test: Western blot phosphorylation kinetics in stimulated hASC: ERK1/2; conditions: 100 ng/ml, 10-120 min
Procedure: as §2, §3, §4

JNK, IκBα or p38 = test: Western blot phosphorylation kinetics in stimulated hASC: JNK, IκBα, p38
PBMC proliferation = test: Immunosuppression assay: proliferation of activated CFSE-labeled PBMC with allogeneic hASC; conditions: 100 ng/ml, day 5
Procedure: FIG. 4. Modulation of APRIL and BAFF in hASC. Immunosuppressive effect (A): hASC cells were cultured with 100 ng/ml APRIL (light grey bar), BAFF (dark grey bar) or no stimulus (white bar) and then stimulated with 1 μg/ml LPS or poly I:C. […] Data were acquired using a FACScalibur cytometer and analyzed using FCAP array software (BD Bioscience). (B): Immunosupression assay: Allogeneic hASCs were cultured with activated CFSE labelled PBLs at a ratio of 1:25 (hASC: PBLs) in the presence or absence of BAFF or APRIL (100 ng/ml). After 5 days cells were harvested, analyzed by flow cytometry in a FACScalibur cytometer (BD Bioscience) and acquired for CFSE. […]
For CFSE labeling, freshly purified PBMC (10-20×106) were washed extensively to remove FBS, resuspended in 200 μl of a 10 μM CFSE solution (Sigma), and incubated with constant shaking (37° C., 10 min) Cells were washed and cultured overnight, and one aliquot was used to set up and control FL-1 voltage for CFSE in the cytometer. […] At day 5, PBMC were harvested and cell proliferation was determined according to loss of CFSE in the FL-1 channel. Data were analyzed using Cellquest-Pro software on gated lymphocytes (based on forward scatter/side scatter properties). The percentage of proliferating lymphocytes was calculated by gating in the region (M1) of the FL-1 channel corresponding to the last 48 h of culture ([…]). […]

[6] = test system: indoleamine 2,3-dioxygenase (IDO); test: IDO induction in hASC; conditions: BAFF/APRIL activation of hASC
[7] = 10, 30, 100 ng/ml, supernatants after five days

O=c1cc(N2CCOCC2)oc2c(-c3ccccc3)cccc12 [LY294002, reference compound]
viability at 6 days [1]: 60.3%

CXCL12: cytokine from Peprotech; enhances APRIL secretion
APRIL secretion by hASC [2, 7]: preferentially enhances APRIL

N#CC(=C(/N)Sc1ccccc1N)/C(C#N)=C(\N)Sc1ccccc1N [U0126, reference compound]
decrease in basal hASC growth (MTS assay), result in words (hASC [3]; inhibitor added to medium, no APRIL/BAFF): but not ERK inhibitor

BAFF: recombinant protein from R&D Systems; TNF ligand binding BCMA, TACI and BAFF-R
phosphorylation of Akt (Akt): induced rapid phosphorylation
effect on hASC expression of HLA-I, HLA-II, CD80 and CD86 [4]: do not affect
hASC growth in MTS assay, considering basal growth 100% (hASC [3]): 140%
promotion of cell growth when ERK was inhibited (hASC [3]): did not promote cell growth
percentage of BrdU-positive cells (hASC [5]): 29.4%
phosphorylation of ERK1/2 (ERK1/2): induced rapid phosphorylation
phosphorylation of JNK, IκBα or p38 (JNK, IκBα or p38): no clear effect
effect on ability of hASC to suppress PBMC proliferation (PBMC proliferation): did not alter
induction of IDO [6]: did not induce

APRIL: recombinant protein from R&D Systems; TNF ligand binding BCMA and TACI
phosphorylation of Akt (Akt): induced rapid phosphorylation
effect on hASC expression of HLA-I, HLA-II, CD80 and CD86 [4]: do not affect
hASC growth in MTS assay, considering basal growth 100% (hASC [3]): 114%
promotion of cell growth when ERK was inhibited (hASC [3]): did not promote cell growth
percentage of BrdU-positive cells (hASC [5]): 27.5%
phosphorylation of ERK1/2 (ERK1/2): induced rapid phosphorylation
phosphorylation of JNK, IκBα or p38 (JNK, IκBα or p38): no clear effect
effect on ability of hASC to suppress PBMC proliferation (PBMC proliferation): did not alter
induction of IDO [6]: did not induce

poly I:C [reference compound]
induction of APRIL or BAFF secretion by TLR ligand ([2]; hASC activated with LPS or poly I:C): Neither ligand induced

B1: IFN-γ: cytokine from Peprotech; inducer of BAFF (protein, UniProt P01579 24-161, looked up)
Interferon gamma: QDPYVKEAENLKKYFNAGHSDVADNGTLFLGILKNWKEESDRKIMQSQIVSFYFKLFKNFKDDQSIQKSVETIKEDMNVKFFNSNKKKRDDFEKLTNYSVTDLNVQRKAIHELIQVMAELSPAAKTGKRKRSQMLFRG
BAFF secretion by hASC [2, 7]: promotes BAFF secretion
